Source: patent US11872263B2, “AIMP1 protein fragment and hair growth-promoting composition containing same as active ingredient” (CUREBIO THERAPEUTICS, priority 2016, dated 2024)

How the values were obtained:
[1] = tested on: dorsal hair of depilated C57BL6 mice; assay: In vivo hair regrowth after depilation of dorsal skin of mice; parameters: species or system mouse; settings: 13 days after depilation, 100 nM polypeptide, 80 μl topical once a day
Description: (§1) The hair of the dorsal skin of mice (7 weeks old male C57BL6, purchased from Orient Bio Inc.) was cut out with a clipper, and hair removal cream (Niclean, Ildong Pharmaceutical) was applied. The depilated area was about 2×2.5 cm. Mice were treated with 20% glycerol/PBS (control group), 3% Minoxidil (MNX, 140 mM), FGF7 (100 nM) or Neo-Pep of the present invention (polypeptide of SEQ ID NO: 1, 100 nM), respectively, once a day in 80 μl using brush, for 13 days (n=6 per group).
as §1, with “Specifically, the hair” for “The hair”, “of a mouse” for “of mice”, “group). For comparative observation, the dorsal skin of the mouse was photographed before and after the beginning of the test.” for “group).”

[2] = tested on: β-catenin target genes AXIN, CD44 and TCF7; assay: qRT-PCR of β-catenin target genes in CD34+ cells; assay type: cell-based, mouse; settings: 100 nM, CD34+ cells cultured 8 hours
Description: In order to confirm the induction of CD34+ hair follicle stem cell proliferation through β-catenin pathway, mRNA expression levels of β-catenin target genes AXIN, CD44 and TCF7 were confirmed by the following method. Specifically, each test substance was treated and CD34+ cells were cultured for 8 hours. Then, the cultured cells were collected, RNA was isolated using GeneJET RNA purification kit (Thermo Fisher, K0731), and cDNA was synthesized with the Maxima first strand cDNA synthesis kit (Thermo Fisher, K1642). qRT-PCR was performed using each of the gene-specific primers (TCF7: 5′-[…]-3′ (SEQ ID NO: 36) and 5′-[…]-3′ (SEQ ID NO: 37), AXIN2: 5′-CTCCTTGGAGGCAAGAGC-3′ (SEQ ID NO: 38) and 5′-GGCCACGCAGCACCGCTG-3′ (SEQ ID NO: 39), CD44: 5′-[…]-3′ (SEQ ID NO: 40) and 5′-GGAGTCTTCGCTTGGGGTA-3′ (SEQ ID NO: 41)), Maxima SYBR green/ROX qPCR master mix (Thermo Fisher, K0222) and 7500 Real-time PCR system (Applied Biosystems, 2720; condition: 40 cycles, 2 step (95° C. for 15 sec, and 54° C. for 60 sec). The expression level of each gene was calculated by the ΔΔCT method.

[3] = tested on: CD34+ hair follicle stem cells; assay: In vitro hair growth assay / BrdU proliferation assay with CD34+ hair follicle stem cells; assay type: cell-based, mouse
Description: The hair of the dorsal skin of 7 weeks old male C57BL6 mice (purchased from Orient Bio Inc.) were cut with a clipper and skin tissue samples of the depilated dorsal region of the mice were collected. The collected skin tissue samples were immersed in medium using collagenase, DNase I, and hyaluronidase, and cells were isolated using Gentle MACSTM Dissociator (Miltenyi Biotec). After the cells were separated, the separated cells were incubated with a mouse CD34-Biotin antibody (Miltenyi Biotec). Cells and antibody solutions were incubated with streptavidin microbeads (Miltenyi Biotec) and then separated using LS column (Miltenyi Biotec). The separated cells were cultured in DMEM medium containing 10% FBS, 1% penicillin/streptomycin solution in humidified air of 95% 02 and 5% CO2 at 37° C.
Cell proliferation can be confirmed using the BrdU cell proliferation assay kit (Cell Signaling). Proliferation assays were performed using protocols presented by […]. Briefly, the cells were incubated with BrdU for 2 h. The primary BrdU detection antibody was incubated for 1 hour and the secondary anti-mouse IgG, HRP-conjugate antibody was incubated for 30 minutes.
A hair growth in vitro assay was performed using the Cyquant Assay (Thermo Fisher). […]

[4] = tested on: C3H/HeJ mice having alopecia universalis; assay: Hair growth in C3H/HeJ mice with skin graft-induced alopecia areata; assay type: in vivo, mouse; settings: 100 μl of 100 nM topical once daily for 14 weeks
Source text: In order to confirm the effect of the polypeptide of the present invention on the human hair growth cycle, C3H/HeJ mouse (Jackson Laboratory, USA) was used as an animal model reflecting the pathological state of human alopecia areata. The advantage of using the C3H/HeJ mouse is that when full thickness skin graft is applied to an aged mouse having alopecia areata from young age, patchy alopecia develops within 8 to 10 weeks, and after 20 weeks, alopecia extends to the whole body skin and result in a chronic state of alopecia universalis.
In this test, C3H/HeJ female mice having alopecia universalis that was induced 25 weeks after skin transplantation as described above were used. Without any pretreatment such as shaving or depilation, control group (Control-treated mice, 100 μl of 20% glycerol/PBS) and Neo-Pep polypeptide treated group (Peptide-treated mice, 100 μl of 100 nM Neo-Pep polypeptide (SEQ ID NO: 1) in 20% glycerol/PBS) were treated with each test material topically around the alopecia region using brush, once daily, for 14 weeks. Control group and Neo-Pep treated group consisted of 4 mice, respectively.
Photographs were taken every 2 weeks from the beginning of the experiment.

[5] = tested on: hair follicles of anagen phase in dorsal skin; assay: H&E staining of dorsal skin sections: anagen hair follicle count and dermis thickness; assay type: in vivo, mouse; settings: H&E stained dorsal skin sections, Day 13 after depilation, 100 nM
Description: Skin samples of 7 weeks old male C57BL6 mice (purchased from Orient Bio Inc.) were collected and placed in a cryomold using an OCT compound (Tissue-Tek) and stored at −80° C. in a freezer. After tissue sections were prepared with Microm HM 525 (Thermo Scientific), the tissue sections prepared in the slide glass were fixed with 4% paraformaldehyde for 10 minutes, washed twice with PBS for 5 minutes, and then stained with 50 μl of hematoxylin solution (Sigma Aldrich) for 6 minutes and washed with water and PBS for 5 minutes. Then, stained with eosin (Sigma Aldrich), briefly washed with water and washed with PBS for 5 min, then briefly twice with 95% ethanol and 100% ethanol, respectively. After treatment with xylene (Duksan) twice for 2 min, the stained tissue sections were covered with cover slides and fixed.
In addition, dorsal skin samples of the mice were collected and placed in a cryomold using an OCT compound (Tissue-Tek) and stored at −80° C. in a freezer. […] The number of hair follicles of anagen phase (growth phase) was counted and compared quantitatively in dorsal skin sections of each group stained with hematoxylin and eosin (H & E).

[6] = tested on: hair follicle region of skin tissue; assay: Histological analysis (IHC for BrdU, β-catenin, Cytokeratin 15) of skin at Day 6 after depilation; assay type: in vivo, mouse; settings: 100 nM
Description: A skin sample of 7 weeks old male C57BL6 mice (purchased from Orient Bio Inc.) was collected and placed in a paraffin block. IHC (Immunohistochemistry) was performed using Cytokeratin 15 antibody (Abcam), BrdU antibody (Novusbio), and β-catenin antibody.
For reference, β-catenin is a hair follicle signaling marker, Cytokeratin 15 is a hair follicle stem cell marker, and BrdU is a cell proliferation marker.
β-catenin is a very important protein for hair growth and a very important factor in follicular stem cell proliferation playing a role as a signaling marker for hair follicle cells. In addition, Cytokeratin 15 acts as a biomarker of hair follicle stem cells, and BrdU is known to be a factor that plays a role as a cell growth marker.

[7] = tested on: hair follicles in skin tissue of C3H/HeJ mice; assay: H&E histology of skin tissue of C3H/HeJ alopecia areata mice; assay type: in vivo, mouse; settings: 100 nM topical
Source text: Meanwhile, in the images of the skin tissue of the mouse in FIG. 7, the skin tissue at the alopecia area and the area without alopecia around it was collected, fixed in Fekete's acid alcohol formalin and analyzed for H&E staining.
These are main characteristics used for diagnosing alopecia areata. And follicular dystrophy is a phenomenon that occurs frequently in alopecia areata, which means that hair follicles are twisted and deformed or have weak or disrupted hair shaft.

With “AVLKRLEQKGAEADQIIEYLKQQVSLLKEKAILQATLREEK (Homo sapiens Neo-Pep polypeptide; AIMP1-(6-46))” the “dorsal hair growth compared with control group” value [1] was “grew much more”, the “mRNA expression level of AXIN, CD44 and TCF7 compared to the control group” value [2] was 5 fold and the “proliferation of CD34+ hair follicle stem cells” value ([3]; 1 nM, 10 nM, 100 nM and 1000 nM) was “induced proliferation of CD34+ hair follicle stem cells in a dose-dependent manner”. The “inducing proliferation of CD34+ hair follicle stem cells (relative cell number)” value ([3]; each peptide 100 nM, 24 hours) was “induced proliferation”, the “time at which hair began to grow again” value [4] was 11 weeks and the “mice with mild to moderate hair growth” value ([4]; 4 mice per group) was 3 out of 4. For the same sequence, the “dermis thickness compared with control” value [5] was “much thicker”, the “number of hair follicles of anagen phase compared with control” value [5] was “more than twice as much” and the “start of anagen phase compared with control (BrdU, β-catenin, Cytokeratin 15)” value [6] was “starts earlier”. For the same sequence, the “development of inflammation and deformed hair shaft compared to the control group” value [7] was “significantly lower”.
